Earlier results in patent US9320798B2, “Lipid delivery formulations” (Dicerna Pharmaceuticals, Inc., priority 2010, dated 2016).

Test system: TLR4
Conditions: Numata et al. PNAS USA 107: 320-325; Abate et al., J Lipid Res 51: 334-344

SMILES	TLR4 activation
CCCCCCCCCCCCCCCC(=O)OC[C@H](COP(=O)([O-])OCC[N+](C)(C)C)OC(=O)CCCCCCCCCCCCCCC [DPPC, dipalmitoylphosphatidylcholine]	capable of disrupting TLR4 activation
CCCCCCCC/C=C\CCCCCCCC(=O)O[C@H](COC(=O)CCCCCCCCCCCCCCC)COP(=O)(O)OCC(O)CO (some centres unmarked) [POPG, palmitoyl-oleoyl-phosphatidylglycerol]	capable of disrupting TLR4 activation
